The values below come from patent US6734168B2, “Endothelial monocyte activating polypeptide II: a mediator which activates host response” (The Trustees of Columbia University in the City of New York, priority 1993, dated 2004).

Bounds are passed on as bounds.

Common to all, as to assay type: cell-based
One test relates to human MPs. Kind of test: MP tissue factor activity, Factor VIIa-dependent Factor Xa formation. The protocol:
Tissue factor activity of monolayers of ECs and MPs was determined (7) after incubation with EMAP II-derived peptides at 37° C. for 4-12 hrs by washing cultures with HEPES (10 MM; pH 7.4), NaCl (137 mM), KCl (4 mM), CaCl2 (3 mM), glucose (10 mM), bovine serum albumin (0.5 mg/ml), and addition of 0.5 ml of the same buffer along with purified human Factor VIIa (1 nM) and Factor X (200 nM) for 45 min at 37° C. Aliquots (0.05 ml) of the reaction mixture (one per well) were withdrawn at 15 min intervals, added to a buffer containing Tris (50 mM; pH 7.9), NaCl (175 mM), EDTA (5 mM) and bovine serum albumin (0.5 mg/ml; 0.05 ml), and the chromogenic substrate Spectrozyme Factor Xa (American Diagnositca, Inc., Greenwich Conn.; 0.01 ml; 2 mM). Cleavage of the substrate was monitored by the change in absorbance at 405 nm (BioKinetics Reader, Winooski, Vt.). Factor Xa concentration was determined by comparison with a standard curve generated with known amounts of purified human Factor Xa. Human, plasma-derived Factors VIIa and X were purified to homogeneity as described (31).
In Vitro Assays of EC, MP, and PMN Functions-Cell-associated tissue factor was assayed by its functional activity, using purified coagulation proteins, and tissue factor mRNA was detected by PCR. […] The concentration of Factor Xa was determined based on a standard curve generated with purified Factor Xa. […]

The next test relates to human PMNs. Briefly: PMN migration in microchemotaxis chambers. Further details: key to PMN MIGRATION: (+) indicates the peptide induced PMN migration; (−) indicates the peptide did not induce PMN migration above levels seen in controls which contained no chemotactic stimulus. The protocol: (§1) Assessment of mononuclear phagocyte (mononuclears) and polymorphonuclear leukocyte (PMN) migration. Human peripheral blood monocytes were isolated from the blood of normal healthy volunteers (30). Blood was centrifuged on Hisopaque 1077 (Sigma, St. Louis, Mo.), the mononuclear fraction was obtained, washed twice in Earle's balanced salt solution, resuspended in RPMI 1640 containing human serum (10%; Gemini, Calabasas, Calif.), plated on tissue culture dishes and incubated at 37° C. for 1-2 hrs. Nonadherent cells were removed by washing the plate twice with balanced salt solution, and adherent cells were harvested by incubation with calcium-magnesium free buffer containing EDTA (2 mM) for 15 min at 37° C., followed by extensive washing. PMNs were prepared by centrifugation over Hisopaque 1119 as per the manufacturer's protocol (Sigma). Chemotaxis assays were performed in microchemotaxis chamber (NeuroProbe, Bethesda, Md.) containing Nucleopore polycarbonate membranes (5 μm; Nucleopore, Pleasonton, Calif.). Mononuclears or PMNs were suspended in RPMI 1640 containing fetal bovine serum (1%) and 10^4 cells were added per well to the upper chamber. The chemotactic stimulus was added to the indicated chamber, and assays were performed in quadruplicate over a 3 hr or 45 min incubation period at 37° C., with mononuclear cells or PMNs, respectively, after which non-migrating cells were removed, membranes were fixed in methanol, migrating cells were visualized with Wright's stain. Cells in nine high-power fields were counted, and the mean and standard error of the mean (SEM) were determined.
(§2) Cell migration was studied by adding MPs or PMNs (10^4 cells/well) resuspended in RPMI 1640 with fetal calf serum (1%; Gemini) to the upper wells of a microchemotaxis chamber (Neuro Probe, Bethesda, Md.) containing Nucleopore polycarbonate membranes (5 μm, Nucleopore, Pleasanton Calif.), as described (7,29-30). The chemotactic stimulus was placed in the upper or lower chamber, as indicated, and cells were allowed to migrate for 3 hrs (for MPs) or 45 min (for PMNs) at 37° C. Following removal of non-migrating cells, membranes were fixed in methanol and migrating cells were visualized with Wright's stain. Assays were performed in quadruplicate, and cells were counted in nine high-power fields in each case (mean±SEM is shown in the figures).
(§3) Migration of PMNs and MPs—Migration was studied using cells (10^4 and 10^3 cells/well form PMNs and MPs, respectively) resuspended in RPMI 1640 with fetal calf serum (1%) added to the upper wells of a microchemotaxis chamber (Neuro Probe, Bethesda, Md.) containing Nucleopore polycarbonate membranes (5 um, Nucleopor, Pleasanton, Calif.), as described (13, 22, 35). The stimulus was placed in the upper or lower chamber, as indicated, and the cells were allowed to migrate for 3 h (for MPs) or 45 min (for PMNs) at 37° C. Following removal of nonmigrating cells, membranes were fixed in methanol, and migrating cells were visualized with Wright's stain. Assays were performed in quadruplicate, and cells were counted in […] high-power fields in each case (mean±S.E. is shown in the figures).

Test [1] deals with human peripheral blood monocytes (MPs). Kind of test: Mononuclear phagocyte migration in microchemotaxis chambers. The protocol: as §1, §2, §3

Turning to “ASRLDLRIGRIVTAKY [residues #6-20 from EMAP II, Cys to Arg substitution at position #15, and a C-terminal Tyr]”, the “Induction of tissue factor activity in MPs (Factor VIIa-dependent Factor X activation)” value in the test with human MPs is given as “did not demonstrate induction of tissue factor activity”. Also, the “Dose above which PMN migration reached an apparent maximum” value with human PMNs (data not shown) was greater than 1 nM. For the same sequence, in the test with human PMNs (four experiments, PMNs from three individuals, read-out: Peptide concentration for half-maximal PMN migration), the EC50 is 0.15 to 0.3 nM. For the same sequence, the “Induction of PMN migration (chemotaxis)” value in the test on human PMNs (microchemotaxis chamber, 45 min at 37° C.) is listed as “led to induction of migration”. Moreover, the “PMN migration at 100 pM peptide relative to fMLP at 1 μM” value with human PMNs (peptide 100 pM) is listed as “roughly comparable”. Besides, in the test on human PMNs (peptide added to the lower well), the “Concentration range over which effect on PMN migration was dose-dependent” value is 10 to 10000 pM. For the same sequence, the “PMN MIGRATION” value with human PMNs (peptides 100 pM in each case) is recorded as “+”. Besides, the “Induction of MP (mononuclear cell) migration (chemotaxis)” value in test [1] (microchemotaxis chamber, 3 hrs at 37° C.) is “induce chemotaxis”. Besides, the “MP migration at 100 pM peptide relative to FMLP at 1 μM” value in test [1] (peptide 100 pM) is given as “similar”.
